Test results: ChEMBL document CHEMBL1201862, “PubChem BioAssay data set” (2004)
The source made the active and inactive calls.

Key:
Hexokinase HKDC1 = target: T1, Hexokinase HKDC1 (Homo sapiens, UniProt Q2TB90); assay: activation of HKDC1 glucose phosphorylation – biochemical, W721R variant, dose response (AID 504730); assay type: functional
T1 sequence (Q2TB90 whole entry): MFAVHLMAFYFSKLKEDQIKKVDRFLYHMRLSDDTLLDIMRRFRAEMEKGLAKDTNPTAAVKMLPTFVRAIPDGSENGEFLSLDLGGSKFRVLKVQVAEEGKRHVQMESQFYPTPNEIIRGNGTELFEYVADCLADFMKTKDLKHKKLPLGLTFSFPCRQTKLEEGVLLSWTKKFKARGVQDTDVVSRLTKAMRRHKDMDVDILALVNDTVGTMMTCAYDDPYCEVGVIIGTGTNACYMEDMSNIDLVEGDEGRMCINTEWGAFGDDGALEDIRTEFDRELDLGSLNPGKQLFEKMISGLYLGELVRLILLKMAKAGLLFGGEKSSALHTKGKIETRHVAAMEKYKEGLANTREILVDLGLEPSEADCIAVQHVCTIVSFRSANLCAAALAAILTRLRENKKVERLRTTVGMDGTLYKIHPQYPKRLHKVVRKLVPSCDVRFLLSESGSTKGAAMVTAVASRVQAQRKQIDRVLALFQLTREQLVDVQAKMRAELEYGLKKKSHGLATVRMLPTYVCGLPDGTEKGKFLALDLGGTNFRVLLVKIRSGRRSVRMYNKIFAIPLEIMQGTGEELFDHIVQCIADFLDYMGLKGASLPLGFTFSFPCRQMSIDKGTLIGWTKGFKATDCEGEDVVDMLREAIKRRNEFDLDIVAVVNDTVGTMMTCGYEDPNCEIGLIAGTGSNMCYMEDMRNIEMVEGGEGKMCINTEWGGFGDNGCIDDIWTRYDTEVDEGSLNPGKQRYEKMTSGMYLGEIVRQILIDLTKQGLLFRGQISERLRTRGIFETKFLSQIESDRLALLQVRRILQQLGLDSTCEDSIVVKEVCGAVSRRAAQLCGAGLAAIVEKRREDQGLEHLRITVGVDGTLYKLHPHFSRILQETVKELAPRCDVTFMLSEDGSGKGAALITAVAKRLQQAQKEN

Beta-galactosidase = Beta-galactosidase (Escherichia coli, UniProt Q8VNN2); assay: PubChem AID 485352; assay type: functional
[1] = target: T2, Zinc finger protein mex-5 (Caenorhabditis elegans, UniProt Q9XUB2); assay: potency of MEX-5 RNA-binding blockers – biochemical, C. elegans, fluorescence polarization, dose response (AID 1960)
T2 sequence (Q9XUB2 whole entry): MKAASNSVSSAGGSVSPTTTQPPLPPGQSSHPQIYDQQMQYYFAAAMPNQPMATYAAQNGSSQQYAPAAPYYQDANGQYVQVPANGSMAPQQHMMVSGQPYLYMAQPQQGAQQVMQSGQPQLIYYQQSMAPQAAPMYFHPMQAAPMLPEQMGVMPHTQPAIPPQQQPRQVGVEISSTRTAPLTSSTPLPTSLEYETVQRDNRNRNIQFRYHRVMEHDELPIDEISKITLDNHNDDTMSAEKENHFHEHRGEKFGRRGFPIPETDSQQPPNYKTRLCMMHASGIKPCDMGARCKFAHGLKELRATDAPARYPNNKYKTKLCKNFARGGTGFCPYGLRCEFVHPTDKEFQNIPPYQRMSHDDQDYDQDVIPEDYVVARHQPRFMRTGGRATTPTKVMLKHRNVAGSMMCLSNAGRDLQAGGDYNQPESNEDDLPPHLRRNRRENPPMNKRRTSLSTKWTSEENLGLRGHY

[2] = target: T3, Type-1 angiotensin II receptor (Homo sapiens, UniProt P30556); assay: antagonism of angiotensin II type 1 receptor – cell-based, uHTS hits, selectivity assay for APJ receptor antagonist project, dose response (AID 463214); assay type: functional;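 also: antagonist potency against angiotensin II stimulated AT1 response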
T3 sequence (P30556 whole entry): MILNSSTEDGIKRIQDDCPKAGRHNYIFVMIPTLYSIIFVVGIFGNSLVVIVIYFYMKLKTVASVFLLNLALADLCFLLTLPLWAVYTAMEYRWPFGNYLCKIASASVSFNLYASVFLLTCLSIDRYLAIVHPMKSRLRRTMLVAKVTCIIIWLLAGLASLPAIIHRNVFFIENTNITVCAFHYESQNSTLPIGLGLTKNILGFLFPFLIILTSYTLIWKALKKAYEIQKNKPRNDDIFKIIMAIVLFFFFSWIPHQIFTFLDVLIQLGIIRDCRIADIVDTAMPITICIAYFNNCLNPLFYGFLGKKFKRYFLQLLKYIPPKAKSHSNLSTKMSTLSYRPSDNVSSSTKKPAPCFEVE

[3] = target: T4, RNA-binding protein pos-1 (Caenorhabditis elegans, UniProt G5EF15); assay: disruptors of C. elegans POS-1 RNA interaction – biochemical, fluorescence polarization, dose response (AID 1964);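 also: purified POS-1 fused to maltose binding protein made in E. coli; potency of compounds blocking POS-1 binding to fluorescent RNA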
T4 sequence (G5EF15 whole entry): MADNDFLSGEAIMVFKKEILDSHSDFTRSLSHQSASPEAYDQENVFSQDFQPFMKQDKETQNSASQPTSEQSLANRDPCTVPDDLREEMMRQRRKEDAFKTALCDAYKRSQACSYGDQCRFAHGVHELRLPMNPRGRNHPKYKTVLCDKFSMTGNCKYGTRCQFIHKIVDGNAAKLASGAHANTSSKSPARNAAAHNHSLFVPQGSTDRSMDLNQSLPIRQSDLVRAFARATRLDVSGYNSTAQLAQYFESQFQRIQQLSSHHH

[4] = target: T5, Endoribonuclease toxin MazF (Escherichia coli K-12, UniProt P0AE70); assay: activation of MazEF endoribonuclease cleavage – biochemical, fluorescence, single-stranded RNA substrate, uHTS hits, dose response (AID 588481); assay type: functional
T5 sequence (P0AE70 whole entry): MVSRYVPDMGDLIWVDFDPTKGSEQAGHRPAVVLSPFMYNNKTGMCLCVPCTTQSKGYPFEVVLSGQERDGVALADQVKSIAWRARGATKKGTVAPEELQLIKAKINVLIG

[5] = target: T5, Endoribonuclease toxin MazF; assay: substrate-only fluorescence increase artefacts – biochemical, single-stranded RNase substrate, counter-screen for MazEF activator project, dose response (AID 588502); assay type: functional
Hexokinase-1 = target: T6, Hexokinase-1 (Homo sapiens, UniProt P19367); assay: HK1 enzyme activation by HKDC1 hits – biochemical, selectivity assay for HKDC1 activator project, dose response (AID 504762); assay type: functional
T6 sequence (P19367 whole entry): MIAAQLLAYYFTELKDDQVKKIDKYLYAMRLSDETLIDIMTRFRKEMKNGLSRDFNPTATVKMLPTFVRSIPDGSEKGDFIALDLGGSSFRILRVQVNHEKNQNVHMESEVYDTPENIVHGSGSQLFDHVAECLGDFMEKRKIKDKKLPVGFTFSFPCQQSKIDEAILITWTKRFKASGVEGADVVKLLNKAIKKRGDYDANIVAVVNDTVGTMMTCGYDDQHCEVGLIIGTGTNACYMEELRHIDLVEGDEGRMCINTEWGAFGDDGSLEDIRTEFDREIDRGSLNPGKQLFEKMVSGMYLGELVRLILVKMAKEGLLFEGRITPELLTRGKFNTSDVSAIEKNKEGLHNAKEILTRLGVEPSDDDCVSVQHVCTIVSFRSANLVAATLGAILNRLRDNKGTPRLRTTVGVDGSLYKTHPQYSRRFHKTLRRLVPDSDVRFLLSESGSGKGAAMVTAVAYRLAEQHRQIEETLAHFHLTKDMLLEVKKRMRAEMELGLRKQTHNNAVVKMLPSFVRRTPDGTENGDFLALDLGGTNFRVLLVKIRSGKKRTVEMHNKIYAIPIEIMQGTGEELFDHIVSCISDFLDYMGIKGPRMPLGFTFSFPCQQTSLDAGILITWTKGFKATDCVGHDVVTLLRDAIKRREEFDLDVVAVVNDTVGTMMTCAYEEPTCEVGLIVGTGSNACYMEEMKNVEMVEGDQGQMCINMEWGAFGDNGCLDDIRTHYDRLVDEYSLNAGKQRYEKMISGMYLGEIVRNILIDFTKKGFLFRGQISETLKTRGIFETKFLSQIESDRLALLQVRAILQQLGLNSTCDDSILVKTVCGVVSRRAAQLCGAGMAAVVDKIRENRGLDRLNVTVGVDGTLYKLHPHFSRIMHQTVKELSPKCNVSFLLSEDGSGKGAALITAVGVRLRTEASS

Vero = assay: cells; assay type: functional; details: Chlorocebus sabaeus
[6] = target: Hepatocyte nuclear factor 4-alpha (Homo sapiens, UniProt P41235); assay type: functional, cell-based;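 also: biochemical luminescence-based dose-response counterscreen measuring inhibition of HNF4 dimerization, run alongside a screen for blockers of ABHD5–perilipin-5 interaction; split luciferase complementation of HNF4 fusion proteins in cell lysate measuring dimerization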
Beta-lactamase [7] = target: Beta-lactamase (Salmonella choleraesuis (strain SC-B67), UniProt Q5J463); assay: Epi-absorbance-based counterscreen for selective VIM-2 inhibitors: dose response biochemical high throughput screening assay to identify inhibitors of TEM-1 serine-beta-lactamase.
Beta-lactamase [8] = target: T7, Beta-lactamase (Pseudomonas aeruginosa, UniProt Q79MP6); assay: inhibition of IMP-1 beta-lactamase activity – biochemical, epi-absorbance, selectivity assay for VIM-2 inhibitor project, dose response (AID 1920)
Beta-lactamase [9] = target: T7, Beta-lactamase; assay: […] counterscreen for selective VIM-2 inhibitors: dose response biochemical high throughput screening assay to identify inhibitors of IMP-1 metallo-beta-lactamase.
[10] = target: Tyrosine-protein phosphatase non-receptor type 11 (Homo sapiens, UniProt Q06124); assay: PTPN11 enzyme inhibitors – biochemical, selectivity assay for STEP inhibitor project, dose response (AID 602367); assay type: functional; details: read-out: IC50_Mean
[11] = target: Tyrosine-protein phosphatase non-receptor type 5 (Homo sapiens, UniProt P54829); assay: PTPN5 enzyme inhibition – biochemical, fluorescence intensity, uHTS hits, confirmation (AID 602372); assay type: functional; details: read-out: IC50_Mean
[12] = target: T8, Tyrosine-protein phosphatase non-receptor type 22 (Homo sapiens, UniProt Q9Y2R2); assay: lymphoid phosphatase LYP inhibitors – biochemical, selectivity assay for STEP inhibitor project, dose response (AID 624241); assay type: functional
T8 sequence (Q9Y2R2 whole entry): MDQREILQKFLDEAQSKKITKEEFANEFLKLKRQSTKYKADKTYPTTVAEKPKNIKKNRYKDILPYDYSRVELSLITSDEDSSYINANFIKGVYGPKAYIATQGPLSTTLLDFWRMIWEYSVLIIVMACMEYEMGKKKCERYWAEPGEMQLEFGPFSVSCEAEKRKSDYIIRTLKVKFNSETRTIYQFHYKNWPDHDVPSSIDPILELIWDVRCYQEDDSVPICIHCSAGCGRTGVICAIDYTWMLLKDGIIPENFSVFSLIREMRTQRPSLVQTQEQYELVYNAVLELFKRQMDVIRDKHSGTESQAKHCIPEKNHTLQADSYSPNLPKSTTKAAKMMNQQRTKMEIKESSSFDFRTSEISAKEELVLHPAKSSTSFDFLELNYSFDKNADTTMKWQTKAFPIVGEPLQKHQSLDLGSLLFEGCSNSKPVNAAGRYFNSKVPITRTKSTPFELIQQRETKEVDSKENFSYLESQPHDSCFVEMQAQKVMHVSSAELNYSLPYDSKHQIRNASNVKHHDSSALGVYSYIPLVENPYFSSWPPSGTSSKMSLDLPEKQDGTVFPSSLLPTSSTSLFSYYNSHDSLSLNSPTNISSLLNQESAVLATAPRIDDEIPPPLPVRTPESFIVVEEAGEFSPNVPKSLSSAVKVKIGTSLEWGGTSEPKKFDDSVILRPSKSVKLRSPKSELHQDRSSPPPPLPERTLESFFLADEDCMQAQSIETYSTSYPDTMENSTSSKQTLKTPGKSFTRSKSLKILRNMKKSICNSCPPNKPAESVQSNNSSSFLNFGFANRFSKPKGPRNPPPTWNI

[13] = target: Dual specificity protein phosphatase 3 (Homo sapiens, UniProt P51452); assay: VHR phosphatase inhibition, dose response, selectivity assay for STEP inhibitor project, biochemical (AID 602374); assay type: functional; details: read-out: IC50_Mean
Mu-type opioid receptor = Mu-type opioid receptor (Homo sapiens, UniProt P35372); assay type: functional, cell-based;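 also: U2OS cells with beta-arrestin recruitment to OPRM1 by beta-gal complementation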
[14] = target: 5-hydroxytryptamine receptor 2A (Mus musculus, UniProt P35363); assay type: functional, cell-based;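 also: CHO-K1 cells with tagged receptor and beta-arrestin; agonist potency measured as compound-induced activation of the receptor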
5-hydroxytryptamine receptor 2A, sequence (P35363 whole entry): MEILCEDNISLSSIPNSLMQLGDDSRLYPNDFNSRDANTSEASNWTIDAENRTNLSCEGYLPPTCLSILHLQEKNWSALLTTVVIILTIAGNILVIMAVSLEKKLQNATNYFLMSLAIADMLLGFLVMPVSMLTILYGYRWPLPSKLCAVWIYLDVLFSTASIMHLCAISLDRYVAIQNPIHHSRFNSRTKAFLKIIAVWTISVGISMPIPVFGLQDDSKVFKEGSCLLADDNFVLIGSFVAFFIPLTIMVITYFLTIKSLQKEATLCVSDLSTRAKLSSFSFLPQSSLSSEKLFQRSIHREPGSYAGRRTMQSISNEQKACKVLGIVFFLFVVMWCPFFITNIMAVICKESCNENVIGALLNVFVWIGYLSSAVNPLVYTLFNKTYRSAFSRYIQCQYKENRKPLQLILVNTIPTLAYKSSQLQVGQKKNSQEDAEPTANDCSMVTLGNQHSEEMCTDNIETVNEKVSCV

T7 sequence (Q79MP6 whole entry): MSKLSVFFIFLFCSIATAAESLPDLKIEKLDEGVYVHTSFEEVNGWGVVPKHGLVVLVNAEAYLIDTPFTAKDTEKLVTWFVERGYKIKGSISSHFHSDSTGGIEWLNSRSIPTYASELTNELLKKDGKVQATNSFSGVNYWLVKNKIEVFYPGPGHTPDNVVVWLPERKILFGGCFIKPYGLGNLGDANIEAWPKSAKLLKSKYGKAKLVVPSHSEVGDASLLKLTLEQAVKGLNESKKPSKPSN
Beta-galactosidase, sequence (Q8VNN2 whole entry): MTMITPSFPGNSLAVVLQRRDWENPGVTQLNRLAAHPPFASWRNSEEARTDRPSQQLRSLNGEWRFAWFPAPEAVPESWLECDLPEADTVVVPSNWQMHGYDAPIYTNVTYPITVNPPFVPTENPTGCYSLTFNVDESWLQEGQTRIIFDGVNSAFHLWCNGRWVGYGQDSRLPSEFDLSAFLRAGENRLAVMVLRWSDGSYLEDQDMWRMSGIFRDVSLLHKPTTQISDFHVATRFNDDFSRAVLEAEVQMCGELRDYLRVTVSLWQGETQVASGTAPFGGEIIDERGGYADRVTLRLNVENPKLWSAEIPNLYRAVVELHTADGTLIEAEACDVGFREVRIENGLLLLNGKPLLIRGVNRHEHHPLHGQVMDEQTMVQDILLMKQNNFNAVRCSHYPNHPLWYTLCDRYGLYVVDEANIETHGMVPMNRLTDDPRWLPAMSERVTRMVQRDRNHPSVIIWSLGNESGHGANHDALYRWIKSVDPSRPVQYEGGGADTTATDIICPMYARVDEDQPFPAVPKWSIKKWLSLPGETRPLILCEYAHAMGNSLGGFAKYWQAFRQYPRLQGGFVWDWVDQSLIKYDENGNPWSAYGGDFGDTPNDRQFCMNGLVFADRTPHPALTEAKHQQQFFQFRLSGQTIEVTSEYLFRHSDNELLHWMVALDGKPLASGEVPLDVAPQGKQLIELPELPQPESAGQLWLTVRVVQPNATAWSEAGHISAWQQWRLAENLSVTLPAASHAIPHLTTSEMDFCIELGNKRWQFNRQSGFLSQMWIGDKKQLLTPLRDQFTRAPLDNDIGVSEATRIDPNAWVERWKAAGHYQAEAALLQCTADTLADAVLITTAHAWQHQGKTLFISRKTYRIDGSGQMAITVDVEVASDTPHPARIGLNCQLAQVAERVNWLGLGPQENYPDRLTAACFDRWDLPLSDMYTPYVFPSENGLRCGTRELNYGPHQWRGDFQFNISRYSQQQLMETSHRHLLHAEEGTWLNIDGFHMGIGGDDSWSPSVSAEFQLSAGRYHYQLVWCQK
Mu-type opioid receptor, sequence (P35372 whole entry): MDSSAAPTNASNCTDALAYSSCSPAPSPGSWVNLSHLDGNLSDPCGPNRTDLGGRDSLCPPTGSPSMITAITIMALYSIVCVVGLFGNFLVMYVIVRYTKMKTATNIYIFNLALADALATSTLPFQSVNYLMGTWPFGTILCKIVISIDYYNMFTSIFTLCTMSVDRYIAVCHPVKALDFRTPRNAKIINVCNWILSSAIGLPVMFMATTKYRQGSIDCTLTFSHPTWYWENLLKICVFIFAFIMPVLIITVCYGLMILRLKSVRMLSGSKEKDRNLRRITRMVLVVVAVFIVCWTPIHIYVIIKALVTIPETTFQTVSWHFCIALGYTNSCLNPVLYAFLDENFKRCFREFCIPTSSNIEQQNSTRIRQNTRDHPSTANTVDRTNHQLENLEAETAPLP
Dual specificity protein phosphatase 3, sequence (P51452 whole entry): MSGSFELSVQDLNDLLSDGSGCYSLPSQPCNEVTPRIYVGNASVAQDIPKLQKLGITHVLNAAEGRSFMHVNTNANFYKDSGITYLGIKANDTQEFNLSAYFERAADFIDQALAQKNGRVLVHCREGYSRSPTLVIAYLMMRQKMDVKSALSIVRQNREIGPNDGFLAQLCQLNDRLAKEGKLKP
Tyrosine-protein phosphatase non-receptor type 5, sequence (P54829 whole entry): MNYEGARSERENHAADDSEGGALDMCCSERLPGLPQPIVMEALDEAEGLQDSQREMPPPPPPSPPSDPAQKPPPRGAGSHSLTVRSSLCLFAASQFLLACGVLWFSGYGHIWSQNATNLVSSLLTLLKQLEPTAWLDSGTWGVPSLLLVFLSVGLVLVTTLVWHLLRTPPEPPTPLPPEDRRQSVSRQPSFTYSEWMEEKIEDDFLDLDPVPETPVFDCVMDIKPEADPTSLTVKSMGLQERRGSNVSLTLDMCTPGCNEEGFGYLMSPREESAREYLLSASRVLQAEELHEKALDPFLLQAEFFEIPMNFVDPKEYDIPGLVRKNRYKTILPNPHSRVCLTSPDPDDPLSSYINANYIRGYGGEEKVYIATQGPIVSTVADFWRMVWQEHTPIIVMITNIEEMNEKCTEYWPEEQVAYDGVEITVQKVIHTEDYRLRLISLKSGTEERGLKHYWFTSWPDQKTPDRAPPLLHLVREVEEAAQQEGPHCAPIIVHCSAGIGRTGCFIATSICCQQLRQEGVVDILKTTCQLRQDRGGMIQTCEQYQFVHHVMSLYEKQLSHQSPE
Hepatocyte nuclear factor 4-alpha, sequence (P41235 whole entry, the tested form may be a part): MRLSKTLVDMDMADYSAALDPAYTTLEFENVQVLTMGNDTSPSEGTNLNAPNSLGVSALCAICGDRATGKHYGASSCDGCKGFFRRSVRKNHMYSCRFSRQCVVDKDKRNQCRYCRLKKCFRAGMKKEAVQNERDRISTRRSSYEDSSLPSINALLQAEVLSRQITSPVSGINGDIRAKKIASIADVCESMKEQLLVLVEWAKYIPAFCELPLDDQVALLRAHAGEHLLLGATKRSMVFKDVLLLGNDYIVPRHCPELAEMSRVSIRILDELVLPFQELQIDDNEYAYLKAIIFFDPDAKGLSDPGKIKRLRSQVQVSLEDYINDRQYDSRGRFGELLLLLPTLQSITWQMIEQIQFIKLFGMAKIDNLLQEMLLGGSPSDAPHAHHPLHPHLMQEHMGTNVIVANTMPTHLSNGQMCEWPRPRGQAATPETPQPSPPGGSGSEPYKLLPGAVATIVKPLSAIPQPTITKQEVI
Beta-lactamase (Salmonella choleraesuis (strain SC-B67), UniProt Q5J463), sequence (Q5J463 whole entry): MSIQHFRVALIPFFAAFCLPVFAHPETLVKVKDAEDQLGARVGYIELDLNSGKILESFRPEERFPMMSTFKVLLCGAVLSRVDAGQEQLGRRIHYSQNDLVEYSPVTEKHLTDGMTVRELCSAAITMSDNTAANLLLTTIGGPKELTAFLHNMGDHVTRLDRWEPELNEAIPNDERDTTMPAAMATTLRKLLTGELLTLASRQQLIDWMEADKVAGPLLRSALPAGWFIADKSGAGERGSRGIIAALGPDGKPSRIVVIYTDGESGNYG
Tyrosine-protein phosphatase non-receptor type 11, sequence (Q06124 whole entry): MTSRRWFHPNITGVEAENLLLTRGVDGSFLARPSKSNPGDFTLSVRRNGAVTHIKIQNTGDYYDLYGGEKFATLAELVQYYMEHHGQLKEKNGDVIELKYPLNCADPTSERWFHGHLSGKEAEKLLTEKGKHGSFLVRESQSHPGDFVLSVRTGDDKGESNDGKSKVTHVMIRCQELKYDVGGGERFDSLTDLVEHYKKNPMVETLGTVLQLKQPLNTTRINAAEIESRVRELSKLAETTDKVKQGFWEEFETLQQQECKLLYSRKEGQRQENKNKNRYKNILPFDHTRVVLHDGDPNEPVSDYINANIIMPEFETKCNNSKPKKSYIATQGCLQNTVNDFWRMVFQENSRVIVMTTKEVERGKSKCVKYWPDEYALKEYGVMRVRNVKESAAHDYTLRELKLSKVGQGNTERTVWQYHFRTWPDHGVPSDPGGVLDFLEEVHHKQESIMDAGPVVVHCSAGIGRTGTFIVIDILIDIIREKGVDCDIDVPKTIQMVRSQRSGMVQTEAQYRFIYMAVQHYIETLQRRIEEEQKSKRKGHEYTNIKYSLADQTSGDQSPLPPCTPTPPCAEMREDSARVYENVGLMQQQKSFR

SMILES: CC(=O)C1=C(c2cccc([N+](=O)[O-])c2)N(C(C)=O)n2c(C)nnc2S1
- EC50 (Hexokinase HKDC1): 8.32 µM (active)
- EC50 (Beta-galactosidase): 15 µM (active)
- EC50 [1]: > 300 µM (inconclusive)
- IC50 [2]: 8.72 µM (active)
- EC50 [3]: 44.2 µM (active)
- EC50 [4]: 20.5 µM (inactive)
- EC50 [5]: 45.2 µM (inactive)
- EC50 (Hexokinase-1): 6.54 µM (active)
- CC50 (Vero): 24.4 µM (active)
- IC50 [6]: 4.27 µM (active)

SMILES: CCN(CC)C(=O)CSc1nc2ccc(NC(=O)CSc3nccn3C)cc2s1
- IC50 (Beta-lactamase [7]): > 59.6 µM (inactive)
- IC50 (Beta-lactamase [8]): > 59.6 µM (inactive)
- IC50 (Beta-lactamase [9]): > 59.6 µM (inactive)

SMILES: CCC(CC)c1nnc(NC(=O)c2cc(C(=O)OC)cc([N+](=O)[O-])c2)s1
- IC50 [10]: 2.28 µM (active)
- IC50 [11]: 8.62 µM (active)
- IC50 [12]: 75.6 µM (inactive)
- IC50 [13]: 0.567 µM (active)

SMILES: COc1ccc(C)cc1NC(=O)CCN1CCN(c2ccccc2F)CC1
- EC50 (Mu-type opioid receptor): 92.5 µM (inactive)
- EC50 [14]: 76.1 µM (inactive)
